Source: article PMC4744035, “In Vivo, In Vitro, and In Silico Characterization of Peptoids as Antimicrobial Agents” (PLoS ONE, 2016)
Converted amounts (≈) assume the structure as drawn. Square brackets hold non-standard residues; d marks the D form. Peptide text beside a SMILES is read from it. Nspe = C[C@H](NCC(=O)O)c1ccccc1; Nphe = O=C(O)CNCc1ccccc1; Nlys = NCCCCNCC(=O)O

Legend:
B. subtilis ATCC 6633 = format: cell-based
Method in brief: (§1)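 MICs determined by 2:1 serial broth microdilution in cation-adjusted Mueller-Hinton broth per CLSI M7-A6, using inoculum at 1 x 10^6 CFU/mL mixed 1:1 with peptoid solution. Three independent replicates, each with two parallel trials.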

E. coli ATCC 35218 = format: cell-based
Method in brief: as §1

NIH 3T3 cells = test: Metabolic activity, MTS assay; format: cell-based, mouse
Experimental: NIH 3T3 mouse fibroblast cells were cultured in complete Dulbecco’s Modified Eagle’s Media. A peptoid solution plate (100 µL per well) was prepared by serial dilution of aqueous peptoid stock solutions in Hank’s balanced salt solution. A day-old cell monolayer was washed thoroughly with Hank’s balanced salt solution and replenished with 100 µL Hank’s balanced salt solution per well. Peptoid solutions were transferred onto the day-old cell monolayers, which contained approximately 5000 cells per well. […] The average of six replicate trials is reported.

[1] = tested on: K. pneumonia 63575 (ESBL); test: microbe, parasite or virus in culture
Method in brief: (§2)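 Modified broth microdilution in Mueller Hinton medium, polypropylene plates; agents serially diluted in 0.01% acetic acid with 0.2% BSA. Inoculum 2–7 x 10^5 CFU/mL from overnight culture, incubated overnight at 37°C. MIC taken as lowest concentration with no visible growth.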

[2] = tested on: P. aeruginosa H103 (wild type); test: microbe, parasite or virus in culture; settings: H103 (wild type)
Method in brief: as §2

E. faecalis W61950 (VRE) = test: microbe, parasite or virus in culture; settings: W61950 (VRE)
Method in brief: as §2

S. aureus ATCC25923 = test: microbe, parasite or virus in culture; settings: ATCC25923
Method in brief: as §2

[3] = tested on: K. pneumonia 61962 (ESBL); test: microbe, parasite or virus in culture
Method in brief: as §2

E. faecalis ATCC29212 = test: microbe, parasite or virus in culture; settings: ATCC29212
Method in brief: as §2

E. faecalis F43559 (VRE) = test: microbe, parasite or virus in culture; settings: F43559 (VRE)
Method in brief: as §2

P. aeruginosa 9 (MDR) = test: microbe, parasite or virus in culture; settings: 9 (MDR)
Method in brief: as §2

[4] = tested on: P. aeruginosa H1027 (MDR); test: microbe, parasite or virus in culture; settings: H1027 (MDR)
Method in brief: as §2

E. faecium mic80 (VRE) = test: microbe, parasite or virus in culture; settings: mic80 (VRE)
Method in brief: as §2

E. coli 64771 (ESBL) = test: microbe, parasite or virus in culture; settings: 64771 (ESBL)
Method in brief: as §2

P. aeruginosa 213 (MDR) = test: microbe, parasite or virus in culture; settings: 213 (MDR)
Method in brief: as §2

P. maltophilia ATCC13637 = test: microbe, parasite or virus in culture; settings: ATCC13637
Method in brief: as §2

S. aureus C623 (MRSA) = test: microbe, parasite or virus in culture; settings: C623
Method in brief: as §2

[5] = tested on: P. aeruginosa LES400 (MDR); test: microbe, parasite or virus in culture; settings: LES400 (MDR)
Method in brief: as §2

[6] = tested on: E. cloacae 218R Class C β-lactamase; test: microbe, parasite or virus in culture; settings: 218R Class C β-lactamase
Method in brief: as §2

[7] = tested on: P. aeruginosa H1030 (MDR); test: microbe, parasite or virus in culture; settings: P. aeruginosa H1030 (MDR)
Method in brief: as §2

P. aeruginosa 198 (MDR) = test: microbe, parasite or virus in culture; settings: 198 (MDR)
Method in brief: as §2

E. faecium T62764 (VRE) = test: microbe, parasite or virus in culture; settings: T62764 (VRE)
Method in brief: as §2

E. coli 63103 (ESBL) = test: microbe, parasite or virus in culture; settings: 63103 (ESBL)
Method in brief: as §2

erythrocytes = test: Hemolytic activity (HD10/HD50); format: cell-based
Excerpt: Table 1 Characteristics of antimicrobial peptoids, screened for activity against B. subtilis and E. coli bacterial strains. | column: HD10 / HD50

Which “MIC B. subtilis” value (B. subtilis ATCC 6633) does the source give for `C[C@@H](c1ccccc1)N(CC(=O)N(CC(=O)N(CCCCN)CC(=O)N(CC(=O)N(CC(=O)N(CCCCN)CC(=O)N(CC(=O)N(CC(=O)N(CCCCN)CC(=O)N(CC(=O)N(CC(N)=O)Cc1ccccc1)Cc1ccccc1)Cc1ccccc1)Cc1ccccc1)Cc1ccccc1)Cc1ccccc1)Cc1ccccc1)C(=O)CNCCCCN` [Peptoid 1ach-Nspe2, H-(NLys-Nspe-Npm)- (NLys-Npm-Npm)3-NH2] (H-[Nlys][Nspe][Nphe][Nlys][Nphe][Nphe][Nlys][Nphe][Nphe][Nlys][Nphe][Nphe]-NH2) here?
Its value is 0.78 µM (≈ 1.34 µg/mL).

What about the “MIC E. coli” value (E. coli ATCC 35218) of the same compound?
Its value is 6.3 µM (≈ 10.8 µg/mL).

And the “ID50 (inhibitory dose, metabolic activity)” value (NIH 3T3 cells)?
Its value is 11 µM.

What about the MIC [1] of the same compound?
Its MIC is 32 µg/mL (≈ 18.6 µM).

What about the MIC [2] of the same compound?
Its MIC is 4 µg/mL (≈ 2.32 µM).

What about the MIC (E. faecalis W61950 (VRE)) of the same compound?
The MIC was 32 µg/mL (≈ 18.6 µM).

What about the MIC (S. aureus ATCC25923) of the same compound?
Its MIC is 4 µg/mL (≈ 2.32 µM).

And the MIC [3]?
The MIC was 64 µg/mL (≈ 37.2 µM).

And the MIC (E. faecalis ATCC29212)?
Its MIC is 16 µg/mL (≈ 9.3 µM).

And the MIC (E. faecalis F43559 (VRE))?
The MIC was 16 µg/mL (≈ 9.3 µM).

What about the MIC (P. aeruginosa 9 (MDR)) of the same compound?
The MIC was 64 µg/mL (≈ 37.2 µM).

And the MIC [4]?
Its MIC is 2 µg/mL (≈ 1.16 µM).

What about the MIC (E. faecium mic80 (VRE)) of the same compound?
The MIC was 4 µg/mL (≈ 2.32 µM).

And the MIC (E. coli 64771 (ESBL))?
The MIC was 8 µg/mL (≈ 4.65 µM).

And the MIC (P. aeruginosa 213 (MDR))?
Its MIC is 8 µg/mL (≈ 4.65 µM).

What about the MIC (P. maltophilia ATCC13637) of the same compound?
The MIC was 2 µg/mL (≈ 1.16 µM).

And the MIC (S. aureus C623 (MRSA))?
The MIC was 4 µg/mL (≈ 2.32 µM).

What about the MIC [5] of the same compound?
The MIC was 4 µg/mL (≈ 2.32 µM).

What about the MIC [6] of the same compound?
Its MIC is 16 µg/mL (≈ 9.3 µM).

What about the MIC [7] of the same compound?
The MIC was 32 µg/mL (≈ 18.6 µM).

And the MIC (P. aeruginosa 198 (MDR))?
Its MIC is 8 µg/mL (≈ 4.65 µM).

And the MIC (E. faecium T62764 (VRE))?
The MIC was 2 µg/mL (≈ 1.16 µM).

And the MIC (E. coli 63103 (ESBL))?
The MIC was 16 µg/mL (≈ 9.3 µM).

And the “HD10 (hemolytic activity)” value (erythrocytes)?
The value was 160.

And the “HD50 (hemolytic activity)” value (erythrocytes)?
Its value is over 200.

How did the “MIC B. subtilis” value (B. subtilis ATCC 6633) turn out when `CC(C)[C@H](C)N(CC(N)=O)C(=O)CN(C(=O)CN(CCCCN)C(=O)CN(C(=O)CN(C(=O)CN(CCCCN)C(=O)CN(C(=O)CN(C(=O)CN(CCCCN)C(=O)CN(C(=O)CN(C(=O)CNCCCCN)[C@@H](C)C(C)C)[C@@H](C)C(C)C)[C@@H](C)C(C)C)[C@@H](C)C(C)C)[C@@H](C)C(C)C)[C@@H](C)C(C)C)[C@@H](C)C(C)C` [Peptoid 1-Nsdpall, H-(NLys-Nsdp-Nsdp)4-NH2] was run?
The value was 0.78 µM (≈ 1.21 µg/mL).

And the “MIC E. coli” value (E. coli ATCC 35218)?
Its value is 25 µM (≈ 38.7 µg/mL).

And the “ID50 (inhibitory dose, metabolic activity)” value (NIH 3T3 cells)?
The value was 64 µM.

And the MIC [1]?
Its MIC is 128 µg/mL (≈ 82.7 µM).

And the MIC [2]?
The MIC was 32 µg/mL (≈ 20.7 µM).

What about the MIC (E. faecalis W61950 (VRE)) of the same compound?
The MIC was 128 µg/mL (≈ 82.7 µM).

And the MIC (S. aureus ATCC25923)?
The MIC was 16 µg/mL (≈ 10.3 µM).

And the MIC [3]?
The MIC was 128 µg/mL (≈ 82.7 µM).

What about the MIC (E. faecalis ATCC29212) of the same compound?
The MIC was 64 µg/mL (≈ 41.4 µM).

And the MIC (E. faecalis F43559 (VRE))?
The MIC was 128 µg/mL (≈ 82.7 µM).

And the MIC (P. aeruginosa 9 (MDR))?
The MIC was 256 µg/mL (≈ 165 µM).

What about the MIC [4] of the same compound?
Its MIC is 4 µg/mL (≈ 2.59 µM).

And the MIC (E. faecium mic80 (VRE))?
Its MIC is 16 µg/mL (≈ 10.3 µM).

And the MIC (E. coli 64771 (ESBL))?
The MIC was 16 µg/mL (≈ 10.3 µM).

What about the MIC (P. aeruginosa 213 (MDR)) of the same compound?
Its MIC is 64 µg/mL (≈ 41.4 µM).

And the MIC (P. maltophilia ATCC13637)?
Its MIC is 1 µg/mL (≈ 0.646 µM).

And the MIC (S. aureus C623 (MRSA))?
Its MIC is 8 µg/mL (≈ 5.17 µM).

And the MIC [5]?
Its MIC is 32 µg/mL (≈ 20.7 µM).

And the MIC [6]?
The MIC was 32 µg/mL (≈ 20.7 µM).

And the MIC [7]?
Its MIC is 32 µg/mL (≈ 20.7 µM).

What about the MIC (P. aeruginosa 198 (MDR)) of the same compound?
Its MIC is 128 µg/mL (≈ 82.7 µM).

And the MIC (E. faecium T62764 (VRE))?
Its MIC is 4 µg/mL (≈ 2.59 µM).

What about the MIC (E. coli 63103 (ESBL)) of the same compound?
The MIC was 64 µg/mL (≈ 41.4 µM).

What about the “HD10 (hemolytic activity)” value (erythrocytes) of the same compound?
The value was >200 / >200.

What about the “HD50 (hemolytic activity)” value (erythrocytes) of the same compound?
The value was >200 / >200.
